This is an account of results in article PMC7956643, “Synthesis of Novel Pyrido[1,2-c]pyrimidine Derivatives with 6-Fluoro-3-(4-piperidynyl)-1,2-benzisoxazole Moiety as Potential SSRI and 5-HT1A Receptor Ligands” (International Journal of Molecular Sciences, 2021).

Marks after values point to notes of the source that are not given here.

One data set concerns the target T1, 5-HT6 receptors (Homo sapiens, UniProt P50406).
T1 construct: expressed in transfected cells
Nature of the data set: 5-HT6 radioligand binding assay. The settings on record: [3H]-LSD; HEK293 cells, human receptor. The procedure:
(§1) In vitro radioligand binding assays for 5-HT2A, 5-HT6, 5-HT7 and D2 receptors were carried out using methods published by Zajdel et al.. For the assays, HEK293 cell cultures stably expressing the investigated human receptors were used. Cell pellets were thawed and homogenized in 20 vol of assay buffer using an Ultra Turrax tissue homogenizer, then centrifuged twice at 35000 g for 20 min at 4 °C, with incubation for 15 min at 37 °C in between. The composition of the assay buffers was as follows: for 5-HT2A receptors—50 mM Tris-HCl, 0.1 mM EDTA, 4 mM MgCl2 and 0.1% ascorbate; for 5-HT6 receptors—50 mM Tris-HCl, 0.5 mM EDTA, 4 mM MgCl2; for 5-HT7 receptors—50 mM Tris-HCl, 4 mM MgCl2, 10 µM pargyline and 0.1% ascorbate; for D2 receptors—50 mM Tris-HCl, 1 mM EDTA, 4 mM MgCl2, 120 mM NaCl, 5 mM KCl, 1.5 mM CaCl2 and 0.1% ascorbate. All assays were incubated in total volume of 200 mL in 96-well microtitre plates for 1 h at 37 °C, except for 5-HT2A receptors which were incubated at room temperature for 1.5 h. The process of equilibration was terminated by rapid filtration through Unifilter plates with a 96-well cell harvester, and radioactivity retained on the filters was quantified on a Microbeta plate reader (PerkinElmer, USA). For displacement studies, the assay samples contained as radioligands (PerkinElmer): 2 nM [^3H]-ketanserin (spec. act. 53.4 Ci/mmol) for 5-HT2A receptors; 2 nM [^3H]-LSD (spec. act. 83.6 Ci/mmol) for 5-HT6 receptors; 0.6 nM [^3H]-5-CT (spec. act. 39.2 Ci/mmol) for 5-HT7 receptors and [^3H]-raclopride (spec. act. 76.0 Ci/mmol) for D2 receptors. […] Each compound was tested in triplicate at 7–8 concentrations (10^-11-10^-4 M). The inhibition constants (Ki) were calculated from the Cheng–Prusoff equation [46]. Results were expressed as means of at least two separate experiments.

For the next data set, the target named is T2, 5-HT7 receptors (Homo sapiens, UniProt P34969).
T2 construct: expressed in transfected cells
T2 sequence (P34969 whole entry): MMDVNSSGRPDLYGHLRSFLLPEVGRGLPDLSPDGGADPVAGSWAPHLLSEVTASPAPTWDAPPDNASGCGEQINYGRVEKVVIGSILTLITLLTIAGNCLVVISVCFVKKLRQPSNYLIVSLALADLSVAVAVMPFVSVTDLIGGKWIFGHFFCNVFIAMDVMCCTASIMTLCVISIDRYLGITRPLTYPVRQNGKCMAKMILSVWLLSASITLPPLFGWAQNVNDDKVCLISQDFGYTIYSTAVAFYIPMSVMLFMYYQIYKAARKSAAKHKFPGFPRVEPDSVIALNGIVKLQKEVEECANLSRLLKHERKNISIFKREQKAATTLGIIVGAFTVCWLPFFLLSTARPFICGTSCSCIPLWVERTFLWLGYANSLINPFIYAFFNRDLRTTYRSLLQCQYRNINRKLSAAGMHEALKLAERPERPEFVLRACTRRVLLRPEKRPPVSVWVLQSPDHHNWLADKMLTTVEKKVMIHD
The experiment in a line: 5-HT7 radioligand binding assay. The settings on record: [3H]-5-CT; HEK293 cells, human receptor. How it is done: as §1

Another data set deals with T3, D2 receptors (Homo sapiens, UniProt P14416).
T3 construct: expressed in transfected cells
T3 sequence (P14416 whole entry): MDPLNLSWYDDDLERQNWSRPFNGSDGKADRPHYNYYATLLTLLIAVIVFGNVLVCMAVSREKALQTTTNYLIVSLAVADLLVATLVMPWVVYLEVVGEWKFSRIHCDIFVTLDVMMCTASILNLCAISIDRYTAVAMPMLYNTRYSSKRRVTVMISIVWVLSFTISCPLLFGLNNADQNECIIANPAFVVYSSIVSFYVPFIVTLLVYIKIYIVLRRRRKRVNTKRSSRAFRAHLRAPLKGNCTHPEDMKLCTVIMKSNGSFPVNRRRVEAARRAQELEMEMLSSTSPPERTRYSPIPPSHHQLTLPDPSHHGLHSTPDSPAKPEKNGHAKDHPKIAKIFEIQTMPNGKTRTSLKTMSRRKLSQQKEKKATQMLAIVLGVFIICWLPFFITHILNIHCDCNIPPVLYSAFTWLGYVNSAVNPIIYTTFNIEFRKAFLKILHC
The experiment in a line: D2 radioligand binding assay. The settings on record: [3H]-raclopride; HEK293 cells, human receptor. How it is done:
as §1

Data set [1] addresses T4, 5-HT1A receptor (Mus musculus, UniProt Q64264).
T4 construct: from tissue; host or cells: whole animal, male CD-1 mice
T4 sequence (Q64264 1-421): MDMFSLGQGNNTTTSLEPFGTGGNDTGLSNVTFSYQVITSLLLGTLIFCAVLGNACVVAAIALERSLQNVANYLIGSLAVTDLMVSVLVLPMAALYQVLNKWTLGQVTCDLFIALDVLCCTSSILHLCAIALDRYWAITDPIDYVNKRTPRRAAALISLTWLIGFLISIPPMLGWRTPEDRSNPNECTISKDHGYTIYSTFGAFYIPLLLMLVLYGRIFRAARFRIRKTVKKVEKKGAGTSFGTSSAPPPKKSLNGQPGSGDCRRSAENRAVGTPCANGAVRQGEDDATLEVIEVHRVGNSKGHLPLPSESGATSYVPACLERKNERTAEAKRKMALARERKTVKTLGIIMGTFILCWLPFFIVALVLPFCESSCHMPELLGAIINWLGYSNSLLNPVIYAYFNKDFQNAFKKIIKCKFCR
Nature of the data set: Body temperature in mice (induced hypothermia). It counts as in vivo, CD-1 mice. The settings on record: mice. The procedure:
(§2) The experiments were performed on male CD-1 mice (23–40 g). The animals were kept at room temperature (21 ± 2 °C) on a natural day-night cycle (March–October) and housed under standard laboratory conditions. They had free access to food and tap water before the experiment. Each experimental group consisted of 6–8 animals/dose. All the animals were used only once. 8-Hydroxy-2-(di-n-propylamino)tetralin hydro-bromide (8-OH-DPAT, Research Biochemical Inc.) was used as aqueous solution. […] Vehicle group was administered as 10% aqueous solution of dimethyl sulphoxide (DMSO). 8-OH-DPAT was injected subcutaneously (sc); 6a and 7g were given intraperitoneally (ip) in a volume of 10 mL/kg/mice. The obtained data were analyzed by Dunnett’s test (one drug administration) or by the Newman–Keuls test (two drugs administrations). Forced swim test: the obtained data was evaluated by one-way analysis of variance (ANOVA) followed by the Dunnett’s multiple comparisons test: p < 0.05 was considered significant.
(§3) The results were expressed as a change in body temperature (Δt) with respect to the basal body temperature, as measured at the beginning of the experiment.

Data set [2] deals with T4, 5-HT1A receptor. Nature of the data set: Effect of WAY-100635 on the hypothermia induced by tested compounds. The data set is classed as in vivo, CD-1 mice. The settings on record: mice. How it is done:
as §2, §3

The next data set deals with T5, human 5-HT1A receptor (Homo sapiens, UniProt P08908).
T5 construct: purchased PerkinElmer; host or cells: CHO-K1 cells, stably transfected
T5 sequence (P08908 1-422): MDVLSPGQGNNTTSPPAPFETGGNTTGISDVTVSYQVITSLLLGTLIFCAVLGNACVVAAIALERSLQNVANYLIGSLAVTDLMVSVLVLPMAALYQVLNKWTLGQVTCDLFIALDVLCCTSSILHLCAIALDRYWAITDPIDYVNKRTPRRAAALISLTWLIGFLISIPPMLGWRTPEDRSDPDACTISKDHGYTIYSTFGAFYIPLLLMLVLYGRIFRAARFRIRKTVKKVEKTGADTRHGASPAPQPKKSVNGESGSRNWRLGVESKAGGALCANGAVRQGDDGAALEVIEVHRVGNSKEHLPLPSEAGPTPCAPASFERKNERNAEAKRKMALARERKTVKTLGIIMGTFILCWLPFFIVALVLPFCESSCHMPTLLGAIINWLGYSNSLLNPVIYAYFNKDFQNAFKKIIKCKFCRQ
The experiment in a line: 5-HT1A radioligand binding assay. The settings on record: [3H]-8-OH-DPAT 1 nM; membranes from CHO-K1 cells with human 5-HT1A receptor. The procedure:
Radioligand binding was performed using membranes from CHO-K1 cells stably transfected with the human 5-HT1A receptor (PerkinElmer, Fremont, CA, USA). All assays were carried out in duplicate. Then, 50 µL working solution of the tested compounds, 50 µL [^3H]-8-OH-DPAT (final concentration 1 nM) and 150 µL diluted membranes (20 µg protein per well) prepared in assay buffer (50 mM Tris, pH 7.4, 10 mM MgSO4, 0.5 mM EDTA, 0.1% ascorbic acid) were transferred to a polypropylene 96-well microplate using 96-wells pipetting station Rainin Liquidator (MettlerToledo, Columbus, OH, USA). […] The reaction was terminated by rapid filtration through GF/B filter mate, presoaked with 0.5% polyethyleneimine for 30 min. Ten rapid washes with 200 µL 50 mM Tris buffer (4 °C, pH 7.4) were performed using an automated harvester system—Harvester-96 MACH III FM (Tomtec, Hamden, CT, USA). […] Data were fitted to a one-site curve-fitting equation with Prism 6 (GraphPad Software, San Diego, CA, USA) and Ki values were estimated from the Cheng–Prusoff equation.

The next data set concerns the target T6, SERT protein (Rattus norvegicus, UniProt P31652).
T6 construct: from tissue; host or cells: rat cortex
Nature of the data set: SERT radioligand binding assay. The settings on record: [3H]-citalopram 1.0 nM; rat cortex tissue. How it is done:
Radioligand binding was performed using rat cortex tissue. All assays were carried out in duplicate. First, 50 µL working solution of the tested compounds, 50 µL [^3H]-citalopram (final concentration 1.0 nM) and 150 µL tissue suspension, prepared in assay buffer (50 mM Tris. pH 7.7; 150 mM NaCl; 5 mM KCl), were transferred to a polypropylene 96-well microplate using 96-wells pipetting station Rainin Liquidator (MettlerToledo). […] The reaction was terminated by rapid filtration through GF/B filter mate presoaked with 0.3% polyethyleneimine for 30 min. Ten rapid washes with 200 µL 50 mM Tris buffer (4 °C, pH 7.7) were performed using an automated harvester system—Harvester-96 MACH III FM (Tomtec). […] Data were fitted to a one-site curve-fitting equation with Prism 6 (GraphPad Software) and Ki values were estimated from the Cheng–Prusoff equation.

The target of another data set is T7, 5-HT2A receptors (Homo sapiens, UniProt P28223).
T7 construct: expressed in transfected cells
T7 sequence (P28223 whole entry): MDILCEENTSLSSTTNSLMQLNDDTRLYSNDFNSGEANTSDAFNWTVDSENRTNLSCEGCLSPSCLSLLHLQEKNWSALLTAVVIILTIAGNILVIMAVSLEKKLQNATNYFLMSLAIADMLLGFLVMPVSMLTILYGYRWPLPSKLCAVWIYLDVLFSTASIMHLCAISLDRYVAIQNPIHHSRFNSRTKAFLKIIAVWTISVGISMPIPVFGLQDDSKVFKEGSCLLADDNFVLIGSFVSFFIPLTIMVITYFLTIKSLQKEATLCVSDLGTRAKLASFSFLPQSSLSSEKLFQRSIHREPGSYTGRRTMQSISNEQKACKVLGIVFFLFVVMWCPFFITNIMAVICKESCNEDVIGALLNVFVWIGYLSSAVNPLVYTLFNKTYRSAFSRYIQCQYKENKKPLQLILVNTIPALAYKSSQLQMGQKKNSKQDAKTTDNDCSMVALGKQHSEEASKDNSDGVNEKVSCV
Nature of the data set: 5-HT2A radioligand binding assay. The settings on record: [3H]-ketanserin; HEK293 cells, human receptor. The procedure: as §1, with “All assays were incubated in total volume of 200 mL in 96-well microtitre plates for 1 h at 37 °C, except for 5-HT2A receptors which were incubated at room temperature for 1.5 h.” left out

T6 sequence (P31652 whole entry): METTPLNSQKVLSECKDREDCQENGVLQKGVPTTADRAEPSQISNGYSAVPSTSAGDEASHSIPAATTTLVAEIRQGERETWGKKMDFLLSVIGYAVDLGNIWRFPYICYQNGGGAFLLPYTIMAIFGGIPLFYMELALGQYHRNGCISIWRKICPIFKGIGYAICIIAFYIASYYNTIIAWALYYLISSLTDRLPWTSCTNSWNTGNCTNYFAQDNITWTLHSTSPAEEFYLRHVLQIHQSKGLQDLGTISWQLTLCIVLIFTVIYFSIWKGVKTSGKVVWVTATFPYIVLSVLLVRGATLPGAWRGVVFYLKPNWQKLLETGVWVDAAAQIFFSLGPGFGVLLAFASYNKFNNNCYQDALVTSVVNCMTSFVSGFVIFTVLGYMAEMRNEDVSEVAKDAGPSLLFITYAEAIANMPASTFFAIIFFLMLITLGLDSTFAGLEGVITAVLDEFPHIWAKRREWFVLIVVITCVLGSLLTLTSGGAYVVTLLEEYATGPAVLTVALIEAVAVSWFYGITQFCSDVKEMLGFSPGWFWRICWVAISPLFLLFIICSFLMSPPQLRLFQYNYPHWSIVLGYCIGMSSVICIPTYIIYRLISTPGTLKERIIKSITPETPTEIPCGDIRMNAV
T1 sequence (P50406 whole entry): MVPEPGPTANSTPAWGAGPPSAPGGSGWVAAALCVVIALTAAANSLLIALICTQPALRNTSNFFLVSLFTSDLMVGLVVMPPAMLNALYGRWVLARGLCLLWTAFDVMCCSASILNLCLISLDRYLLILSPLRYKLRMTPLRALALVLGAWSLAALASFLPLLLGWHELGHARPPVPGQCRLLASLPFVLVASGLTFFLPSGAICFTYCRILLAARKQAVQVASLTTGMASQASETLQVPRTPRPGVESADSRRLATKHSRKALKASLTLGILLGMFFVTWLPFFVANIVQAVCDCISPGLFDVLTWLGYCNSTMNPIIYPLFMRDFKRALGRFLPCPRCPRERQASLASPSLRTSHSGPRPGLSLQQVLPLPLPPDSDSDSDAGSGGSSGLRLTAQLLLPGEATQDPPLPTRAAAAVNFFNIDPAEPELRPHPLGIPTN

The compound `COc1ccc(-c2c3n(c(=O)n(CCCCN4CCC(c5noc6cc(F)ccc56)CC4)c2=O)CCCC3)cc1` [Compound 7g, 4-(4-Methoxyphenyl)-2-{4-[4-(6-fluoro-1,2-benzoxazol)-1-piperidyl]butyl}-5,6,7,8-tetrahydro-pyrido[1,2-c]pyrimidine-1,3-dione] registered a melting point of 108 to 109 °C. This compound gave a Ki at 5-HT6 receptors of 0.4 ± 0.032 µM. On 5-HT7 receptors, the Ki is 0.094 ± 0.011 µM. This compound also displayed a Ki on D2 receptors of 0.01 ± 0.001 µM. Besides, the “Induction of hypothermia in mice” value on 5-HT1A receptor [1] is on record as “induced hypothermia”. Further, the “Δt ± SEM, body temperature” value on 5-HT1A receptor [1] (1.25 mg/kg ip, 30 min) is −1.5 ± 0.3 ^b °C. For the same compound, the “Δt ± SEM, body temperature” value at 5-HT1A receptor [1] (1.25 mg/kg ip, 60 min) is −1.7 ± 0.3 ^b °C. The “Δt ± SEM, body temperature” value on 5-HT1A receptor [1] (1.25 mg/kg ip, 90 min) was −1.3 ± 0.4 ^b °C. On 5-HT1A receptor [1] (1.25 mg/kg ip, 120 min), the “Δt ± SEM, body temperature” value is −1.0 ± 0.3 °C. Besides, the “Δt ± SEM, body temperature” value at 5-HT1A receptor [1] (2.5 mg/kg ip, 30 min) was −2.2 ± 0.2 ^b °C. The “Δt ± SEM, body temperature” value at 5-HT1A receptor [1] (2.5 mg/kg ip, 60 min) is −2.8 ± 0.3 ^b °C. Also, at 5-HT1A receptor [1] (2.5 mg/kg ip, 90 min), the “Δt ± SEM, body temperature” value was −2.9 ± 0.3 ^b °C. For the same compound, the “Δt ± SEM, body temperature” value at 5-HT1A receptor [1] (2.5 mg/kg ip, 120 min) was −3.0 ± 0.4 ^b °C. At 5-HT1A receptor [1] (5 mg/kg ip, 30 min), the “Δt ± SEM, body temperature” value is −2.1 ± 0.1 ^b °C. The “Δt ± SEM, body temperature” value on 5-HT1A receptor [1] (5 mg/kg ip, 60 min) was −3.4 ± 0.3 ^b °C. In addition, the “Δt ± SEM, body temperature” value at 5-HT1A receptor [1] (5 mg/kg ip, 90 min) was −3.9 ± 0.5 ^b °C. In addition, on 5-HT1A receptor [1] (5 mg/kg ip, 120 min), the “Δt ± SEM, body temperature” value is −4.2 ± 0.8 ^b °C. Moreover, the “Δt ± SEM, body temperature” value at 5-HT1A receptor [2] (WAY-100635 0.1 mg/kg sc 15 min before compound 1.25 mg/kg, 30 min) is −1.2 ± 0.2 ^b °C. Also, the “Δt ± SEM, body temperature” value at 5-HT1A receptor [2] (WAY-100635 0.1 mg/kg sc 15 min before compound 1.25 mg/kg, 60 min) is −0.7 ± 0.3 ^d °C. For the same compound, on 5-HT1A receptor [2] (vehicle + compound 1.25 mg/kg, 30 min), the “Δt ± SEM, body temperature” value is −1.5 ± 0.3 ^c °C. Besides, the “Δt ± SEM, body temperature” value on 5-HT1A receptor [2] (vehicle + compound 1.25 mg/kg, 60 min) was −1.7 ± 0.3 ^c °C.

`COc1ccc(-c2c3n(c(=O)n(CCCCN4CCC(c5noc6cc(F)ccc56)CC4)c2=O)CCCC3)cc1` [Compound 7g]: the figures for the Ki at human 5-HT1A receptor, on SERT protein and on 5-HT2A receptors were 0.005 ± 0.0005 µM, 0.048 ± 0.0024 µM and 0.016 ± 0.002 µM, respectively.

`O=c1c(-c2ccc(F)cc2)c2n(c(=O)n1CCCCN1CCC(c3noc4cc(F)ccc34)CC1)CCCC2` [Compound 7i, 4-(4-Fluorophenyl)-2-{4-[4-(6-fluoro-1,2-benzoxazol)-1-piperidyl]butyl}-5,6,7,8-tetrahydro-pyrido[1,2-c]pyrimidine-1,3-dione] came in with a melting point of 57 to 60 °C. The same compound came in with an inhibition constant Ki at human 5-HT1A receptor of 0.0095 ± 0.0011 µM. On SERT protein, this compound registered an inhibition constant (Ki) of 0.311 ± 0.035 µM. The Ki at 5-HT2A receptors turned out to be 0.044 ± 0.006 µM. Further, the Ki on 5-HT6 receptors turned out to be 0.74 ± 0.183 µM. The same compound had a Ki at 5-HT7 receptors of 0.161 ± 0.027 µM. This compound yielded an inhibitory constant (Ki) at D2 receptors of 0.017 ± 0.002 µM.
